Measurements from PubChem BioAssay (NCI).
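Cultured in 96-well plates, cells were exposed to test compound for 48 hours across five concentrations. TGI: concentration producing complete growth inhibition.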

What was measured:
Assay in all cases: growth of human tumour cells (NCI), 48 h
UACC-257 melanoma = system: UACC-257 melanoma
NCI-H522 lung = system: NCI-H522 lung
LOX IMVI melanoma = system: LOX IMVI melanoma
PC-3 prostate = system: PC-3 prostate
MOLT-4 leukemia = system: MOLT-4 leukemia
MALME-3M melanoma = system: MALME-3M melanoma
UO-31 renal = system: UO-31 renal
NCI-H23 lung = system: NCI-H23 lung
NCI/ADR-RES ovarian = system: NCI/ADR-RES ovarian
ACHN renal = system: ACHN renal
BT-549 breast = system: BT-549 breast
A549 NSCLC = system: A549 NSCLC
MDA-MB-231 breast = system: MDA-MB-231 breast
OVCAR-3 ovarian = system: OVCAR-3 ovarian
RPMI-8226 leukemia = system: RPMI-8226 leukemia
HCC-2998 colon = system: HCC-2998 colon
T-47D breast = system: T-47D breast
SF-295 CNS = system: SF-295 CNS
CAKI-1 renal = system: CAKI-1 renal
HCT-15 colon = system: HCT-15 colon
SF-268 CNS = system: SF-268 CNS
HCT-116 colon = system: HCT-116 colon
SN12C renal = system: SN12C renal
CCRF-CEM leukemia = system: CCRF-CEM leukemia
NCI-H460 lung = system: NCI-H460 lung
SNB-19 CNS = system: SNB-19 CNS
KM12 colon = system: KM12 colon
TK-10 renal = system: TK-10 renal
A498 renal = system: A498 renal
IGROV1 ovarian = system: IGROV1 ovarian
EKVX NSCLC = system: EKVX NSCLC
786-0 renal = system: 786-0 renal
MDA-N = system: MDA-N
SNB-75 CNS = system: SNB-75 CNS
M14 melanoma = system: M14 melanoma
HOP-62 NSCLC = system: HOP-62 NSCLC
HOP-92 NSCLC = system: HOP-92 NSCLC
RXF 393 renal = system: RXF 393 renal
HS 578T breast = system: HS 578T breast
HT29 colon = system: HT29 colon
UACC-62 melanoma = system: UACC-62 melanoma
OVCAR-5 ovarian = system: OVCAR-5 ovarian
OVCAR-8 ovarian = system: OVCAR-8 ovarian
SK-MEL-28 melanoma = system: SK-MEL-28 melanoma
DU-145 prostate = system: DU-145 prostate
OVCAR-4 ovarian = system: OVCAR-4 ovarian
SW-620 colon = system: SW-620 colon
K-562 leukemia = system: K-562 leukemia
SR leukemia = system: SR leukemia
SK-MEL-2 melanoma = system: SK-MEL-2 melanoma
MDA-MB-435 = system: MDA-MB-435
U251 CNS = system: U251 CNS
SF-539 CNS = system: SF-539 CNS
MCF7 breast = system: MCF7 breast
SK-OV-3 ovarian = system: SK-OV-3 ovarian
NCI-H226 lung = system: NCI-H226 lung
COLO 205 colon = system: COLO 205 colon
SK-MEL-5 melanoma = system: SK-MEL-5 melanoma

Measured: TGI

CC(C)(C)C(=O)C(C(c1ccccc1)N1CCOCC1)N1CCOCC1 (stereo unspecified)
not listed: SF-539 CNS | MCF7 breast | SK-OV-3 ovarian | NCI-H226 lung | COLO 205 colon | SK-MEL-5 melanoma
> 100 µM: all other assays above

Cc1cccc(-c2cc(=S)c3cc(N4CCCC4)ccc3[nH]2)c1
not listed: NCI-H522 lung | MALME-3M melanoma | NCI-H23 lung | BT-549 breast | NCI-H460 lung | IGROV1 ovarian | HT29 colon | OVCAR-8 ovarian | SR leukemia
> 100 µM: all other assays above
